Laboratory results reported in patent publication US20180319810A1, “SUBSTITUTED BRIDGED UREA ANALOGS AS SIRTUIN MODULATORS” (GlaxoSmithKline Intellectual Property (No.2) Limited, priority 2014, published 2018).

Molecular target: T1, SIRT1 (Homo sapiens, UniProt Q96EB6)
T1 sequence (Q96EB6 1-747): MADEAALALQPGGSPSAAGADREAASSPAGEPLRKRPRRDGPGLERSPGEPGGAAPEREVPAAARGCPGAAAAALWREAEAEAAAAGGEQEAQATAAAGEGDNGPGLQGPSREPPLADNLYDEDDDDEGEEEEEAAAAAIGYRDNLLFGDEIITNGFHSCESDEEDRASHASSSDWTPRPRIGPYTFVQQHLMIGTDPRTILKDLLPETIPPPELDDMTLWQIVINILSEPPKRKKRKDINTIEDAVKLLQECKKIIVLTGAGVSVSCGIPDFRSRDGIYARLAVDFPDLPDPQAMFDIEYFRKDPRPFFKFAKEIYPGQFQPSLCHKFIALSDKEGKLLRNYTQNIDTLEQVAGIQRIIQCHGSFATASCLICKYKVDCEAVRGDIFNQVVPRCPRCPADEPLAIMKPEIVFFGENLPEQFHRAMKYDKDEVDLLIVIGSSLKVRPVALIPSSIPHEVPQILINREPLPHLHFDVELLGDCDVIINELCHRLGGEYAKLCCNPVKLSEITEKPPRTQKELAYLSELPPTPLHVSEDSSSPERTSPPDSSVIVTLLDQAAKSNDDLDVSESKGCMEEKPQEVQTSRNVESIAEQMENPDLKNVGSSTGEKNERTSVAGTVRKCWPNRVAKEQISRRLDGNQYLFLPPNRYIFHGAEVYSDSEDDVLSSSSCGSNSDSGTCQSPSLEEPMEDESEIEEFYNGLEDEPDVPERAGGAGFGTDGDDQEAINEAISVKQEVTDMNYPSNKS
Test: Trp mass spectrometry assay of SIRT1 activation
Format: biochemical
Conditions: Trp peptide Ac-R-H-K-K(Ac)-W-NH2 0.5 μM, 120 μM βNAD+, 10 nM SIRT1, 25 min, 25° C.

TRP Activity (EC1.5, concentration of compound required to increase SIRT1 activity by 50% over control)	TRP MAX RESP (percent maximum fold activation relative to control)	Structure (SMILES)
B (EC1.5 1-25 μM)	A (Fold activation ≥150%)	Cc1cc(-c2ncc3c(n2)N(C(=O)Nc2cccnc2)[C@H]2CCCN3C2)ccn1 [Example 114, (9S)-2-(2-methylpyridin-4-yl)-N-(pyridin-3-yl)-8,9-dihydro-6H-5,9-methanopyrimido[4,5-b][1,4]diazocine-10(7H)-carboxamide]
B (EC1.5 1-25 μM)	A (Fold activation ≥150%)	Cc1ncc(-c2ccnc(NC(=O)N3c4nc(C(=O)N[C@H](C)C(F)(F)F)ncc4N4CC[C@H]3C4)c2)o1 [Example 115, (8S)—N9-(4-(2-methyloxazol-5-yl)pyridin-2-yl)-N2-((R)-1,1,1-trifluoropropan-2-yl)-7,8-dihydro-5,8-methanopyrimido[4,5-b][1,4]diazepine-2,9(6H)-dicarboxamide]
C (EC1.5>25 μM)	A (Fold activation ≥150%)	O=C(NC1CC1)c1ncc2c(n1)N(C(=O)Nc1ccccn1)[C@H]1CCCN2C1 [Example 116, (9S)—N2-cyclopropyl-N10-(pyridin-2-yl)-8,9-dihydro-6H-5,9-methanopyrimido[4,5-b][1,4]diazocine-2,10(7H)-dicarboxamide]
B (EC1.5 1-25 μM)	A (Fold activation ≥150%)	C[C@@H](NC(=O)c1ncc2c(n1)N(C(=O)Nc1cccc(OC[C@@H](O)CO)n1)[C@H]1CCCN2C1)C(F)(F)F [Example 117, (9S)—N10-(6-((S)-2,3-dihydroxypropoxy)pyridin-2-yl)-N2-((R)-1,1,1-trifluoropropan-2-yl)-8,9-dihydro-6H-5,9-methanopyrimido[4,5-b][1,4]diazocine-2,10(7H)-dicarboxamide]
A (EC1.5<1 μM)	A (Fold activation ≥150%)	Cc1nc(C(=O)N[C@H](C)C(F)(F)F)nc2c1N1CCC[C@@H](C1)N2C(=O)Nc1ccc(OC[C@@H](O)CO)cn1 [Example 118, (9S)—N10-(5-((S)-2,3-dihydroxypropoxy)pyridin-2-yl)-4-methyl-N2-((R)-1,1,1-trifluoropropan-2-yl)-8,9-dihydro-6H-5,9-methanopyrimido[4,5-b][1,4]diazocine-2,10(7H)-dicarboxamide]
A (EC1.5<1 μM)	A (Fold activation ≥150%)	C[C@@H](NC(=O)c1ncc2c(n1)N(C(=O)Nc1ccc(OC[C@@H](O)CO)cn1)[C@H]1CCCN2C1)C(F)(F)F [Example 119, (9S)—N10-(5-((S)-2,3-dihydroxypropoxy)pyridin-2-yl)-N2-((R)-1,1,1-trifluoropropan-2-yl)-8,9-dihydro-6H-5,9-methanopyrimido[4,5-b][1,4]diazocine-2,10(7H)-dicarboxamide]
